Test results reported in the supplement of paper PMC8149375.

Columns and labels:
Settings in all cases: treatment: drug alone; 5 days
[1] = system: 786-O; test: minimum viability across doses, drug alone, relative to DMSO (fraction); higher = less growth inhibition
Procedure: (§1)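 Primary HTS: 8 RCC cell lines treated with 8 doses (up to 10 uM) of each library drug alone for 5 days; viability read by CellTiter-Glo and normalised to DMSO. GI50 was fitted with XLfit (4-parameter), AUC is the area under the dose-response curve, and minimum viability is the lowest fraction of DMSO viability across doses.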

[2] = system: TK-10; test: as above
Procedure: as §1

[3] = system: 769-P; test: as above
Procedure: as §1

[4] = system: A498; test: as above
Procedure: as §1

[5] = system: CAKI-1; test: as above
Procedure: as §1

[6] = system: ACHN; test: as above
Procedure: as §1

[7] = system: UO-31; test: as above
Procedure: as §1

[8] = system: SN12C; test: as above
Procedure: as §1

[9] = system: 786-O; test: GI50, drug alone; higher = less potent
Procedure: as §1

[10] = system: TK-10; test: GI50, drug alone; higher = less potent
Procedure: as §1

[11] = system: 769-P; test: GI50, drug alone; higher = less potent
Procedure: as §1

[12] = system: A498; test: GI50, drug alone; higher = less potent
Procedure: as §1

[13] = system: CAKI-1; test: GI50, drug alone; higher = less potent
Procedure: as §1

[14] = system: ACHN; test: GI50, drug alone; higher = less potent
Procedure: as §1

[15] = system: UO-31; test: GI50, drug alone; higher = less potent
Procedure: as §1

[16] = system: SN12C; test: GI50, drug alone; higher = less potent
Procedure: as §1

[17] = system: 786-O; test: AUC of dose-response viability curve, drug alone (arbitrary (AUC of normalised viability)); higher = less growth inhibition
Procedure: as §1

[18] = system: TK-10; test: as above
Procedure: as §1

[19] = system: 769-P; test: as above
Procedure: as §1

[20] = system: A498; test: as above
Procedure: as §1

[21] = system: CAKI-1; test: as above
Procedure: as §1

[22] = system: ACHN; test: as above
Procedure: as §1

[23] = system: UO-31; test: as above
Procedure: as §1

[24] = system: SN12C; test: as above
Procedure: as §1

| Structure (SMILES) | minimum viability across doses [1] | minimum viability across doses [2] | minimum viability across doses [3] | minimum viability across doses [4] | minimum viability across doses [5] | minimum viability across doses [6] | minimum viability across doses [7] | minimum viability across doses [8] | GI50, drug alone [9] | GI50, drug alone [10] | GI50, drug alone [11] | GI50, drug alone [12] | GI50, drug alone [13] | GI50, drug alone [14] | GI50, drug alone [15] | GI50, drug alone [16] | AUC of dose-response viability curve [17] | AUC of dose-response viability curve [18] | AUC of dose-response viability curve [19] | AUC of dose-response viability curve [20] | AUC of dose-response viability curve [21] | AUC of dose-response viability curve [22] | AUC of dose-response viability curve [23] | AUC of dose-response viability curve [24] |
| --- | --- | --- | --- | --- | --- | --- | --- | --- | --- | --- | --- | --- | --- | --- | --- | --- | --- | --- | --- | --- | --- | --- | --- | --- |
| CO[C@H]1CC2CC[C@@H](C)[C@@](O)(O2)C(=O)C(=O)N2CCCC[C@H]2C(=O)O[C@H]([C@H](C)C[C@@H]2CCC(OC(=O)C(C)(CO)CO)[C@H](OC)C2)CC(=O)[C@H](C)/C=C(\C)[C@@H](O)[C@@H](OC)C(=O)[C@H](C)C[C@H](C)/C=C/C=C/C=C/1C (stereo in doubt) [Temsirolimus (Torisel)] | 0.294 | 0.486 | 0.62 | 0.641 | 0.433 | 0.407 | 0.299 | 0.578 | < 0.003 µM | 3.9 µM | > 10 µM | > 10 µM | 1.27 µM | 0.386 µM | 0.0803 µM | > 10 µM | 1.31 | 2.39 | 2.8 | 2.57 | 2.15 | 2.03 | 1.58 | 2.31 |
| Cn1cnc(N)c2ncnc1-2 [3-Methyladenine] | 0.618 | 0.696 | 0.947 | 1.04 | 0.991 | 0.879 | 1.12 | 0.961 | > 10 µM | > 10 µM | > 10 µM | > 10 µM | > 10 µM | > 10 µM | > 10 µM | > 10 µM | 2.67 | 2.77 | 3.6 | 3.89 | 3.74 | 3.25 | 4.92 | 3.65 |
| Cc1nc(NC(=O)N2CCC[C@H]2C(N)=O)sc1-c1csc(C(C)(C)C)n1 [A66] | 0.418 | 0.631 | 0.823 | 0.787 | 0.805 | 0.803 | 0.757 | 0.659 | 5.72 µM | > 10 µM | > 10 µM | > 10 µM | > 10 µM | > 10 µM | > 10 µM | > 10 µM | 2.57 | 2.93 | 3.33 | 3.34 | 3.36 | 3.42 | 3.47 | 2.94 |
| CC1(C)CCC(CN2CCN(c3ccc(C(=O)NS(=O)(=O)c4ccc(NCC5CCOCC5)c([N+](=O)[O-])c4)c(Oc4cnc5[nH]ccc5c4)c3)CC2)=C(c2ccc(Cl)cc2)C1 [ABT-199 (GDC-0199 )] | 0.442 | 0.617 | 0.88 | 0.915 | 0.846 | 0.847 | 1.02 | 0.821 | < 0.003 µM | > 10 µM | > 10 µM | > 10 µM | > 10 µM | > 10 µM | > 10 µM | > 10 µM | 2.19 | 3.06 | 3.47 | 3.73 | 3.28 | 3.16 | 3.98 | 3.19 |
| CC1(C)CCC(c2ccc(Cl)cc2)=C(CN2CCN(c3ccc(C(=O)NS(=O)(=O)c4ccc(N[C@H](CCN5CCOCC5)CSc5ccccc5)c(S(=O)(=O)C(F)(F)F)c4)cc3)CC2)C1 [ABT-263 (Navitoclax)] | 0.00566 | 0.163 | 0.0787 | 0.622 | 0.603 | 0.0597 | 0.00527 | 0.524 | 0.181 µM | 1.07 µM | 3.17 µM | > 10 µM | > 10 µM | 2.28 µM | 0.784 µM | > 10 µM | 1.72 | 2.39 | 3.02 | 3 | 3.41 | 2.51 | 2.31 | 3.21 |
| CN(C)CC[C@H](CSc1ccccc1)Nc1ccc(S(=O)(=O)NC(=O)c2ccc(N3CCN(Cc4ccccc4-c4ccc(Cl)cc4)CC3)cc2)cc1[N+](=O)[O-] [ABT-737] | 0.00151 | 0.253 | 0.305 | 0.1 | 0.952 | 0.206 | 0.00414 | 0.625 | 0.501 µM | 4.57 µM | 9.18 µM | 5.36 µM | > 10 µM | 5.69 µM | 3.08 µM | > 10 µM | 1.66 | 2.43 | 3.47 | 3.25 | 3.76 | 2.88 | 4.03 | 3.25 |
| CCN1CCN(Cc2ccc(-c3cc4c(N[C@H](C)c5ccccc5)ncnc4[nH]3)cc2)CC1 [AEE788 (NVP-AEE788)] | 0.108 | 0.0159 | 0.0865 | 0.898 | 0.0495 | 0.0622 | 0.0104 | 0.276 | 8.51 µM | 0.581 µM | 1.64 µM | > 10 µM | 3.19 µM | 0.415 µM | 7.87 µM | 4.79 µM | 3.45 | 2.13 | 2.61 | 3.87 | 2.81 | 2.1 | 3.98 | 2.77 |
| N#C/C(=C\c1ccc(O)c(O)c1)C(=O)NCc1ccccc1 [AG-490] | 0.369 | 0.615 | 0.823 | 1.04 | 0.948 | 0.301 | 0.843 | 0.788 | 5.99 µM | > 10 µM | > 10 µM | > 10 µM | > 10 µM | 7.43 µM | > 10 µM | > 10 µM | 2.89 | 3.21 | 3.27 | 3.87 | 3.57 | 3.09 | 4.19 | 3.37 |
| CC(C)(C)c1cc(C=C(C#N)C#N)cc(Br)c1O [AG-1024] | 0.729 | 0.791 | 0.853 | 1.02 | 0.846 | 0.904 | 1.24 | 0.919 | > 10 µM | > 10 µM | > 10 µM | > 10 µM | > 10 µM | > 10 µM | > 10 µM | > 10 µM | 2.78 | 3.13 | 3.41 | 3.94 | 3.65 | 3.56 | 4.79 | 3.53 |
| COc1cc2ncnc(Nc3cccc(Cl)c3)c2cc1OC [AG-1478 (Tyrphostin AG-1478)] | 0.179 | 0.472 | 0.481 | 1.01 | 0.628 | 0.37 | 0.795 | 0.813 | 5.49 µM | 2.85 µM | 3.24 µM | > 10 µM | > 10 µM | 1.16 µM | > 10 µM | > 10 µM | 2.32 | 2.36 | 2.48 | 4.85 | 2.91 | 2.24 | 4.04 | 2.95 |
| COc1ccc2c(Oc3ccc(NC(=O)c4c(C)n(CC(C)(C)O)n(-c5ccccc5)c4=O)nc3)ccnc2c1 [AMG458] | 0.25 | 0.66 | 0.971 | 0.859 | 0.449 | 0.262 | 0.597 | 0.71 | 4.55 µM | > 10 µM | > 10 µM | > 10 µM | 8.65 µM | 4.79 µM | > 10 µM | > 10 µM | 2.82 | 3.29 | 3.55 | 3.66 | 3.32 | 3.03 | 3.98 | 3.13 |
| Cc1csc(-c2nnc(Nc3ccc(Oc4ncccc4-c4ccnc(N)n4)cc3)c3ccccc23)c1 [AMG 900] | 0.0401 | 0.561 | 0.287 | 0.776 | 0.425 | 0.231 | 0.875 | 0.479 | 0.0169 µM | > 10 µM | 0.109 µM | > 10 µM | 0.672 µM | 0.171 µM | > 10 µM | 4.57 µM | 0.822 | 2.41 | 1.64 | 4.67 | 2.02 | 1.72 | 3.73 | 2.49 |
| COc1ccc2c(OCc3nnc4ccc(-c5ccccc5)nn34)ccnc2c1 [AMG-208] | 0.869 | 0.804 | 0.879 | 1.15 | 0.678 | 0.888 | 1.25 | 0.912 | > 10 µM | > 10 µM | > 10 µM | > 10 µM | > 10 µM | > 10 µM | > 10 µM | > 10 µM | 3.53 | 3.11 | 3.41 | 4.38 | 2.66 | 3.47 | 4.94 | 3.4 |
| O=C1NC(=O)[C@@H](c2cn3c4c(cccc24)CCC3)[C@@H]1c1c[nH]c2ccccc12 [ARQ 197 (Tivantinib)] | 0.00526 | 0.326 | 0.0795 | 0.121 | 0.201 | 0.144 | 0.0233 | 0.251 | 0.424 µM | 2.88 µM | 1.55 µM | 1.15 µM | 1.06 µM | 1.54 µM | 1.31 µM | 2.17 µM | 2.06 | 2.77 | 2.55 | 3 | 2.54 | 2.63 | 3.27 | 2.86 |
| C=CC(=O)Nc1ccc2ncnc(Nc3ccc(OCc4cccc(F)c4)c(Cl)c3)c2c1.Cc1ccc(S(=O)(=O)O)cc1 [AST-1306] | 0.0947 | 0.109 | 0.048 | 0.922 | 0.174 | 0.315 | 1.05 | 0.188 | 2.38 µM | 0.884 µM | 1.72 µM | > 10 µM | 3.35 µM | 3.11 µM | > 10 µM | 4.97 µM | 2.59 | 2.33 | 2.61 | 3.99 | 2.76 | 2.9 | 4.13 | 3.03 |
| Cc1cc2c(C(C)C)c(O)c(O)c(C=O)c2c(O)c1-c1c(C)cc2c(C(C)C)c(O)c(O)c(C=O)c2c1O [AT101] | 0.212 | 0.542 | 0.779 | 0.836 | 0.121 | 0.2 | 0.778 | 0.741 | > 10 µM | > 10 µM | > 10 µM | > 10 µM | 6.05 µM | 5.95 µM | > 10 µM | > 10 µM | 1.66 | 2.36 | 3.66 | 3.74 | 3.35 | 3.02 | 3.8 | 3.2 |
| O=C(NC1CCNCC1)c1n[nH]cc1NC(=O)c1c(Cl)cccc1Cl [AT7519] | 0.00447 | 0.182 | 0.0237 | 0.00986 | 0.0613 | 0.00881 | 0.00638 | 0.0108 | 0.375 µM | 1.04 µM | 1.91 µM | 0.455 µM | 0.9 µM | 0.946 µM | 0.415 µM | 0.431 µM | 2.23 | 2.32 | 2.78 | 2.45 | 2.23 | 2.35 | 3.04 | 2.14 |
